# Reference: ChEMBL document CHEMBL3868599, “Strategy for designing selective α-l-rhamnosidase inhibitors: Synthesis and biological evaluation of l-DMDP cyclic isothioureas” (Bioorg Med Chem, 2017)
# What was measured:
# [1] = molecular target: T1, Tissue alpha-L-fucosidase (Bos taurus) (UniProt Q2KIM0); assay: Inhibition of bovine kidney alpha-L-fucosidase at 1000 uM using p-nitrophenyl-glycoside as substrate by spectrophotometric method
# T1 sequence (whole entry): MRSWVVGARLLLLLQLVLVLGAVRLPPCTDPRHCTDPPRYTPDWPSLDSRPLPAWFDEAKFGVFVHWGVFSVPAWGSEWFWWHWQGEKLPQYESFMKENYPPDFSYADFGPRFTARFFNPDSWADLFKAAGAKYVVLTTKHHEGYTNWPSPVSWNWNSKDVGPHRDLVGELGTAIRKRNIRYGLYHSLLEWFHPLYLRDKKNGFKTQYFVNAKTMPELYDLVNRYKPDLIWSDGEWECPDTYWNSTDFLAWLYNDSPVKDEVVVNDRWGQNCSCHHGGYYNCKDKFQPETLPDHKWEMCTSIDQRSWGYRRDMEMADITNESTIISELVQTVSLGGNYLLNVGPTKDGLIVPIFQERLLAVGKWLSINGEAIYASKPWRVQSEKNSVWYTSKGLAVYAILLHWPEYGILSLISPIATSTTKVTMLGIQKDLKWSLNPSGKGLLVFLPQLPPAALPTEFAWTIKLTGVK
# [2] = Inhibition of bovine liver beta-glucosidase using p-nitrophenyl-glycoside as substrate by spectrophotometric method; set-up: species or system Bos taurus
# [3] = tested on: Oryza sativa; assay: Inhibition of rice alpha-glucosidase at 1000 uM using p-nitrophenyl-glycoside as substrate by spectrophotometric method
# [4] = molecular target: T2, Uncharacterized protein (Sus scrofa) (UniProt I3LIR5); assay: Inhibition of porcine kidney trehalase assessed as D-glucose level at 1000 uM using maltose as substrate measured after 10 to 30 mins
# T2 sequence (whole entry): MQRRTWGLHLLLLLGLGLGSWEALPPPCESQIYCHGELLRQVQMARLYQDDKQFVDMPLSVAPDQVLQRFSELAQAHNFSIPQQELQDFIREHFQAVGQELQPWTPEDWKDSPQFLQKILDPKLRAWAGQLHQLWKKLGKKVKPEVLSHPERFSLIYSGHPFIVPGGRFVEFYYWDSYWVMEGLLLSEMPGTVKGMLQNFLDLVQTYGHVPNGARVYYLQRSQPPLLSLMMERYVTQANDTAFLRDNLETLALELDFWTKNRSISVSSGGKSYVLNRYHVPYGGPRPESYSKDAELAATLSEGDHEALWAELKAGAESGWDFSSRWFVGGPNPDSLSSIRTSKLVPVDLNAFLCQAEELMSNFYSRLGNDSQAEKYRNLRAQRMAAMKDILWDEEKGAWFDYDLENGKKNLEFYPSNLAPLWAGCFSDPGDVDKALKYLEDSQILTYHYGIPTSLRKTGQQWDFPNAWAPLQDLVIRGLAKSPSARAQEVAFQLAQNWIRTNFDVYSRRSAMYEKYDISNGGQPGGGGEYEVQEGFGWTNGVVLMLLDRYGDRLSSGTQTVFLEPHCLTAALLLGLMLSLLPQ
# [5] = Inhibition of human lysosomal beta-glucosidase using 4-methylumbelliferyl-beta-D-glucopyranoside as substrate preincubated for 45 mins followed by substrate addition measured after 30 mins by fluorescence spectrophotometric method
# [6] = tested on: Escherichia coli; assay: Inhibition of Escherichia coli beta-glucuronidase at 1000 uM using p-nitrophenyl-glycoside as substrate by spectrophotometric method
# [7] = tested on: Prunus dulcis; assay: Inhibition of almond beta-glucosidase at 1000 uM using p-nitrophenyl-glycoside as substrate by spectrophotometric method
# [8] = tested on: Aspergillus niger; assay: Inhibition of Aspergillus niger amyloglucosidase assessed as D-glucose level at 1000 uM using maltose as substrate measured after 10 to 30 mins
# [9] = molecular target: T3, Beta-galactosidase (Bos taurus, UniProt Q58D55); assay: Inhibition of bovine liver beta-galactosidase using p-nitrophenyl-glycoside as substrate by spectrophotometric method
# T3 sequence (Q58D55 whole entry): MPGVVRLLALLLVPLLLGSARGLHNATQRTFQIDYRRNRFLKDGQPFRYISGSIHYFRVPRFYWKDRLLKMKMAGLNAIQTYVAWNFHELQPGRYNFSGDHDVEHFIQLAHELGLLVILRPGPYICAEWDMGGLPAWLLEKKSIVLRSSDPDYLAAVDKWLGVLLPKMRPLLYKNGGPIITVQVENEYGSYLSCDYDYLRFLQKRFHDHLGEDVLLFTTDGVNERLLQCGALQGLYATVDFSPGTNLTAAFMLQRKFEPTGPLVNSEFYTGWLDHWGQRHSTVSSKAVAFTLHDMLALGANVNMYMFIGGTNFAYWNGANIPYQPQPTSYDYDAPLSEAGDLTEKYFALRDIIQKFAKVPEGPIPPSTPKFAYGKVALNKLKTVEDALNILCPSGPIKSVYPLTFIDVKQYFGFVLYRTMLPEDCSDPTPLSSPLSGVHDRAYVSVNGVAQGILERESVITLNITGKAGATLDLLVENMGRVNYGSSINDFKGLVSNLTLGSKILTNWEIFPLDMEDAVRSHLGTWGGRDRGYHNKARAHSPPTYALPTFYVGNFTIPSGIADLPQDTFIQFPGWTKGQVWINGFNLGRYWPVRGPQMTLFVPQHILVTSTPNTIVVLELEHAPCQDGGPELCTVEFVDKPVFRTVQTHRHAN
# [10] = tested on: Penicillium decumbens; assay: Inhibition of Penicillium decumbens alpha-L-rhamnosidase at 1000 uM using p-nitrophenyl-glycoside as substrate by spectrophotometric method
# [11] = species on record: Rattus norvegicus; assay: Inhibition of rat intestinal maltase assessed as D-glucose level at 1000 uM using maltose as substrate measured after 10 to 30 mins
# [12] = species on record: Bos taurus; assay: Inhibition of bovine liver beta-glucosidase at 1000 uM using p-nitrophenyl-glycoside as substrate by spectrophotometric method
# [13] = molecular target: T4, Beta-galactosidase (Bos taurus) (UniProt Q58D55); assay: Inhibition of bovine liver beta-galactosidase at 1000 uM using p-nitrophenyl-glycoside as substrate by spectrophotometric method
# T4 sequence (whole entry): T3 sequence (Q58D55 whole entry)
# [14] = species on record: Homo sapiens; assay: Inhibition of human lysosomal beta-glucosidase at 1000 uM using 4-methylumbelliferyl-beta-D-glucopyranoside as substrate preincubated for 45 mins followed by substrate addition measured after 30 mins by fluorescence spectrophotometric method
# [15] = Inhibition of Penicillium decumbens alpha-L-rhamnosidase using p-nitrophenyl-glycoside as substrate by spectrophotometric method
# [16] = tested on: Prunus dulcis; assay: Inhibition of almond beta-glucosidase at 100 uM using p-nitrophenyl-glycoside as substrate by spectrophotometric method
# [17] = molecular target: T2, Uncharacterized protein (Sus scrofa); assay: Inhibition of porcine kidney trehalase assessed as D-glucose level at 100 uM using maltose as substrate measured after 10 to 30 mins
# [18] = tested on: Escherichia coli; assay: Inhibition of Escherichia coli beta-glucuronidase at 100 uM using p-nitrophenyl-glycoside as substrate by spectrophotometric method
# [19] = species on record: Rattus norvegicus; assay: Inhibition of rat intestinal maltase assessed as D-glucose level at 100 uM using maltose as substrate measured after 10 to 30 mins
# [20] = tested on: Oryza sativa; assay: Inhibition of rice alpha-glucosidase at 100 uM using p-nitrophenyl-glycoside as substrate by spectrophotometric method
# [21] = molecular target: T1, Tissue alpha-L-fucosidase (Bos taurus); assay: Inhibition of bovine kidney alpha-L-fucosidase at 100 uM using p-nitrophenyl-glycoside as substrate by spectrophotometric method
# [22] = tested on: Aspergillus niger; assay: Inhibition of Aspergillus niger amyloglucosidase assessed as D-glucose level at 100 uM using maltose as substrate measured after 10 to 30 mins
# [23] = Inhibition of Penicillium decumbens alpha-L-rhamnosidase
# [24] = species on record: Homo sapiens; assay: Inhibition of human lysosomal beta-glucosidase at 100 uM using 4-methylumbelliferyl-beta-D-glucopyranoside as substrate preincubated for 45 mins followed by substrate addition measured after 30 mins by fluorescence spectrophotometric method
# [25] = species on record: Bos taurus; assay: Inhibition of bovine liver beta-glucosidase at 100 uM using p-nitrophenyl-glycoside as substrate by spectrophotometric method
smiles,measurement,setting,value
CCCCCCCCNC(=S)N1[C@H](CO)[C@@H](O)[C@H](O)[C@H]1CO,inhibition,[1],< 50%
same,IC50,[2],689 µM
same,inhibition,[3],< 50%
same,inhibition,[4],< 50%
same,IC50,[5],12 µM
same,inhibition,[6],< 50%
same,inhibition,[7],< 50%
same,inhibition,[8],< 50%
same,IC50,[9],414 µM
same,inhibition,[10],< 50%
same,inhibition,[11],< 50%
CCCCNC(=S)N1[C@H](CO)[C@@H](O)[C@H](O)[C@H]1CO,inhibition,[1],< 50%
same,inhibition,[12],< 50%
same,inhibition,[3],< 50%
same,inhibition,[4],< 50%
same,inhibition,[13],< 50%
same,inhibition,[6],< 50%
same,inhibition,[7],< 50%
same,inhibition,[14],< 50%
same,inhibition,[8],< 50%
same,inhibition,[10],< 50%
same,inhibition,[11],< 50%
OC[C@H]1[C@H](O)[C@@H](O)[C@@H]2CS/C(=N/Cc3ccccc3Cl)N12,IC50,[15],2.5 µM
CCCCCCCCCCCC/N=C1/SC[C@@H]2[C@@H](O)[C@H](O)[C@@H](CO)N12,inhibition,[16],< 50%
same,inhibition,[17],< 50%
same,IC50,[2],63 µM
same,inhibition,[18],< 50%
same,inhibition,[19],< 50%
same,inhibition,[20],< 50%
same,IC50,[5],1 µM
same,inhibition,[21],< 50%
same,IC50,[15],67 µM
same,IC50,[9],32 µM
same,inhibition,[22],< 50%
Cc1ccc(C/N=C2/SC[C@H]3[C@H](O)[C@@H](O)[C@H](CO)N23)cc1,IC50,[15],1.2 µM
COc1ccc(C/N=C2/SC[C@H]3[C@H](O)[C@@H](O)[C@H](CO)N23)cc1,IC50,[15],1.6 µM
C[C@H]1N[C@@H](CO)[C@H](O)[C@H](O)[C@H]1O,IC50,[23],850 µM
CCCCCCNC(=S)N1[C@@H](CO)[C@H](O)[C@@H](O)[C@@H]1CO,inhibition,[1],< 50%
same,inhibition,[12],< 50%
same,inhibition,[3],< 50%
same,inhibition,[4],< 50%
same,inhibition,[6],< 50%
same,inhibition,[7],< 50%
same,inhibition,[14],< 50%
same,inhibition,[8],< 50%
same,IC50,[9],572 µM
same,inhibition,[10],< 50%
same,inhibition,[11],< 50%
OC[C@H]1[C@@H](O)[C@H](O)[C@@H]2CS/C(=N/Cc3ccc(Cl)c(Cl)c3)N12,inhibition,[10],9.3%
OC[C@H]1[C@@H](O)[C@@H](O)CN1Cc1ccccc1,IC50,[23],21 µM
OC[C@H]1[C@H](O)[C@@H](O)[C@@H]2CS/C(=N/Cc3cccc(Cl)c3)N12,IC50,[15],0.7 µM
COc1ccc(C[C@@H]2NC[C@H](O)[C@H]2O)cc1,IC50,[23],3.7 µM
CCCCCCCCCC/N=C1/SC[C@H]2[C@H](O)[C@@H](O)[C@H](CO)N12,inhibition,[24],< 50%
same,inhibition,[16],< 50%
same,inhibition,[17],< 50%
same,inhibition,[25],< 50%
same,inhibition,[18],< 50%
same,inhibition,[19],< 50%
same,inhibition,[20],< 50%
same,inhibition,[21],< 50%
same,IC50,[15],0.77 µM
same,IC50,[9],36 µM
same,inhibition,[22],< 50%
C[C@@H]1C[C@H](O)[C@H]2[C@@H](O)[C@@H](O)CN2C1,IC50,[23],0.032 to 0.034 µM
OC[C@H](O)[C@@H]1NC[C@H](O)[C@@H]1O,IC50,[23],52.8 µM
OC[C@H]1[C@H](O)[C@@H](O)[C@@H]2CS/C(=N/Cc3ccc(F)cc3)N12,IC50,[15],1.8 µM
OC[C@H]1[C@H](O)[C@@H](O)[C@@H]2CS/C(=N/Cc3ccc(Cl)cc3Cl)N12,IC50,[15],0.8 µM
OC[C@H]1[C@H](O)[C@@H](O)[C@@H]2CS/C(=N/Cc3cc(Cl)cc(Cl)c3)N12,IC50,[15],0.7 µM
OC[C@H]1[C@H](O)[C@@H](O)[C@@H]2CS/C(=N/Cc3ccc(Cl)cc3)N12,IC50,[15],0.89 µM
CCCCCCNC(=S)N1[C@H](CO)[C@@H](O)[C@H](O)[C@H]1CO,inhibition,[1],< 50%
same,inhibition,[12],< 50%
same,inhibition,[3],< 50%
same,inhibition,[4],< 50%
same,inhibition,[6],< 50%
same,inhibition,[7],< 50%
same,inhibition,[14],< 50%
same,inhibition,[8],< 50%
same,IC50,[9],1000 µM
same,inhibition,[10],< 50%
same,inhibition,[11],< 50%
OC[C@@H]1[C@H](O)[C@@H](O)[C@@H]2CCCCN12,IC50,[23],3.3 µM
OC[C@H]1[C@H](O)[C@@H](O)[C@@H]2CS/C(=N/Cc3cc(Cl)c(Cl)c(Cl)c3)N12,IC50,[15],0.45 µM
CCCCCCCCCCCC/N=C1/SC[C@H]2[C@H](O)[C@@H](O)[C@H](CO)N12,inhibition,[24],< 50%
same,inhibition,[16],< 50%
same,inhibition,[17],< 50%
same,IC50,[2],9.5 µM
same,inhibition,[18],< 50%
same,inhibition,[19],< 50%
same,inhibition,[20],< 50%
same,inhibition,[21],< 50%
same,IC50,[15],0.46 µM
same,IC50,[9],11 µM
same,inhibition,[22],< 50%
